{
  "source": "paper PMC11111691",
  "about": "“Cystine-knot peptide inhibitors of HTRA1 bind to a cryptic pocket within the active site region” (Nature Communications, 2024)",
  "key": {"[1]": {"molecular_target": "T1, HTRA4^PD/PDZ-Y200A (Homo sapiens, UniProt P83105, Y200A)", "T1 construct": "HTRA4 (HTRA4^PD/PDZ; G153-N476); made in house; host or cells: E. coli", "T1 sequence (P83105 153-476 Y200A)": "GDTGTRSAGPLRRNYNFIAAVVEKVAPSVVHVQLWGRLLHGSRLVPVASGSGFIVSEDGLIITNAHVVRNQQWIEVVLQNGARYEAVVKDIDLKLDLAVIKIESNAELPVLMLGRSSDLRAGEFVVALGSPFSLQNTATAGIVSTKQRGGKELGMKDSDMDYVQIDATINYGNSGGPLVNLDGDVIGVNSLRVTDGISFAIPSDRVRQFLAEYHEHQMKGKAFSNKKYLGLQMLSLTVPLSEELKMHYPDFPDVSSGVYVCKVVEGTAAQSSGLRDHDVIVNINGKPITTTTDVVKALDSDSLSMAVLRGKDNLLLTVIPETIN", "test": "H2-OPT enzyme assay, chimeric HTRA4^PD/PDZ-Y200A", "assay_type": "biochemical", "conditions": "1 µM HTRA4^PD/PDZ-Y200A, 10 µM 3B3, H2-OPT; read-out: Inhibition (reduction of enzyme activity) of HTRA4^PD/PDZ-Y200A", "text": "The protease domains of human HTRA1 (HTRA1^PD; D161-K379) and mouse HTRA1 (mHTRA1^PD; D161-K379) contained an N-terminal His6 tag followed by a TEV protease cleavage sequence as described recently. The chimeric HTRA1^PD-A202Y was made by introducing an A202Y mutation to the human HTRA1^PD construct. […] The protease-PDZ domains of human HTRA3 (HTRA3^PD/PDZ; L130-M453) and HTRA4 (HTRA4^PD/PDZ; G153-N476) contained a C-terminal thrombin cleavage sequence followed by a His6 tag[44]. The chimeric HTRA4^PD/PDZ-Y200A was made by introducing a Y200A mutation to the HTRA4^PD/PDZ construct. These constructs were expressed in E. coli and purified as described[38],[44],[47]. […] The purity of the trimeric HTRA proteins after size exclusion chromatography was assessed by SDS-PAGE and LC/MS. […]\nAssays with the fluorescence-quenched synthetic substrate Mca-IRRVSYSFK(Dnp)K (H2-OPT)[38],[60] were carried out essentially as described. […] The kinetics of substrate cleavage was measured at 37 °C on a SpectraMax M5 microplate reader with excitation of 328 nm and emission of 393 nm. The determined initial rates of cleavage were expressed as percent of control (DMSO control) after subtracting the baseline rates (without enzyme). IC50 values were determined by Sigmoidal 4PL modeling of multiple data points from serial dilutions of CKPs using Prism 9 software (GraphPad). […]"}, "[2]": {"molecular_target": "T2, HTRA4^PD/PDZ, HTRA4^FL (Homo sapiens, UniProt P83105)", "T2 construct": "purchased Abcam (FL form); the PD/PDZ form was made in house in E. coli ab134444", "T2 sequence (P83105 153-476)": "T1 sequence (P83105 153-476 Y200A) with A48Y", "test": "Fluorescence-quenched casein-BODIPY assay, HTRA4", "assay_type": "biochemical", "conditions": "300 nM HTRA4^PD/PDZ, 2 µM CKP (0.5 mM 7mer-ABP)", "experimental": "The fluorescence-quenched casein-BODIPY® assay (EnzCheck®, Thermo Fisher Scientific) was carried out in TNC buffer (50 mM Tris pH 8.0, 200 mM NaCl, 0.25% CHAPS) at 37 °C in 96-well black optical bottom plates (Nalge Nunc Int., Rochester, NY). Enzymes were incubated with CKPs or DMSO control for 15 min prior to addition of casein substrate. The reactant concentrations were: 30 nM HTRA1^FL, 30 nM HTRA1^PD/PDZ, 30 nM HTRA1^PD, 30 nM HTRA2^PD/PDZ, 30 nM HTRA3^FL, 100 nM HTRA3^PD/PDZ, 30 nM HTRA4^FL, 300 nM HTRA4^PD/PDZ, 2 µM CKP, 5 µg/ml casein substrate and 0.25% DMSO. For selectivity assays, 0.5 mM 7mer-ABP was used as positive control. The kinetics of substrate cleavage were measured at 37 °C on a SpectraMax M5 microplate reader (Molecular Devices) with excitation of 485 nm and emission of 530 nm for 30 min (HTRA1 and HTRA2) or 5 h (HTRA3 and HTRA4). The determined initial rates of cleavage were expressed as percent of control (DMSO control) after subtracting the baseline rates (without enzyme)."}},
  "note": "Numbering of substitutions follows the chain as printed. Positions of bridges follow the written chain, without caps; N, C: chain ends. Residues, ends and D or L forms follow the SMILES beside them.",
  "data": [
    {"compound": "CC[C@H](C)[C@H](NC(=O)[C@@H]1CCCN1C(=O)[C@H](CC(=O)O)NC(=O)[C@H](C)NC(=O)[C@@H](N)Cc1c[nH]cn1)C(=O)N[C@H]1CSSC[C@@H]2NC(=O)[C@H](Cc3ccccc3)NC(=O)[C@H](Cc3c[nH]c4ccccc34)NC(=O)[C@H](C)NC(=O)CNC(=O)[C@H](CO)NC(=O)[C@@H]3CSSC[C@@H](C(=O)NCC(=O)N4CCC[C@H]4C(=O)N[C@@H](Cc4ccc(O)cc4)C(=O)N[C@H](C(=O)NCC(N)=O)C(C)C)NC(=O)[C@H](CO)NC(=O)[C@H](Cc4c[nH]c5ccccc45)NC(=O)[C@H]([C@@H](C)O)NC(=O)[C@H](C)NC(=O)[C@H](Cc4ccc(O)cc4)NC(=O)[C@H](Cc4ccc(O)cc4)NC(=O)[C@H](CSSC[C@H](NC(=O)[C@@H]4CCCN4C(=O)[C@H](CCCCN)NC(=O)[C@H](CC(N)=O)NC1=O)C(=O)N[C@@H](CCCCN)C(=O)N[C@@H]([C@@H](C)O)C(=O)N[C@@H](Cc1c[nH]cn1)C(=O)N[C@@H](CC(=O)O)C(=O)N[C@@H](CC(=O)O)C(=O)N3)NC(=O)[C@H](C)NC(=O)[C@H](CCC(N)=O)NC2=O", "note": "[3B3] (H-HADPICNKPCKTHDDCSGAWFCQACYYATWSCGPYVG-NH2; disulfide 6-22, 10-25, 16-32)", "values": [
      {"measurement": "inhibition at 10 µM", "setting": "[1]", "result": 57, "unit": "%"}
    ]},
    {"compound": "DPMFKLV-phosphonate [7mer-ABP]", "values": [
      {"measurement": "Inhibition of HTRA4^PD/PDZ, casein-BODIPY cleavage (% of control)", "setting": "[2]", "result": "significantly inhibited"}
    ]}
  ]
}
